From US12290596B2, “Compositions and methods for the treatment of opioid overdose” (priority 2021, dated 2025)

Assays:
[1] = Safety and tolerability of IN nalmefene, adverse events (Example 13); assay type: in vivo, human (healthy volunteers)
Excerpt: Safety: The Investigator evaluated safety using the following assessments: reported or observed AEs, clinical laboratory evaluations, vital sign measurements, physical examinations, ECGs (including telemetry), nasal irritation determined from nasal passage examinations, and NRS to determine acute nasal pain.

[2] = Example 14 safety: adverse events; settings: Part 2
[3] = Two-period crossover pharmacokinetics of nalmefene 3 mg IN vs 1.0 mg IM (Example 12); settings: for AUC(0-t) / AUC(0-inf): human, im, 1 mg; for AUC(0-inf): AUCinf
[4] = Treatment B (6 mg, 1 spray in each nostril)
[5] = Treatment C (6 mg, 2 sprays in 1 nostril)
[6] = Treatment A: 3.0 mg nalmefene hydrochloride IN, plasma, Max, n 66
[7] = Treatment A: 3.0 mg nalmefene hydrochloride IN, plasma, Min, n 66
[8] = Treatment B: 1.0 mg nalmefene IM (gluteal muscle), plasma, Max, n 68
[9] = Treatment B: 1.0 mg nalmefene IM (gluteal muscle), plasma, Min, n 68
[10] = Treatment B: IM 1.0 mg nalmefene hydrochloride, plasma, Geo. Mean, n=68
[11] = Treatment B: IM 1.0 mg nalmefene hydrochloride, plasma, Max, n=68
[12] = Treatment B: IM 1.0 mg nalmefene hydrochloride, plasma, Mean, n=68
[13] = Treatment B: IM 1.0 mg nalmefene hydrochloride, plasma, Median, n=68
[14] = Treatment B: IM 1.0 mg nalmefene hydrochloride, plasma, Min, n=68

## C=C1CC[C@@]2(O)[C@H]3Cc4ccc(O)c5c4[C@@]2(CCN3CC2CC2)[C@H]1O5 [Nalmefene, 17-cyclopropylmethyl-4,5α-epoxy-6-methylenemorphinan-3,14-diol]
[1]; 3 mg and 6 mg dose, fasted healthy subjects
  Tolerability: well-tolerated
[1]; Treatment A
  Nasal congestion, instances: 1
  Nasal discomfort, instances: 1
  Nausea, instances: 1
[1]; Treatment A (3 mg)
  Number of AEs reported: 20
  Subjects reporting AEs: 43.5%
[1]; Treatment B
  Nasal congestion, instances: 2
  Nausea, instances: 5
[1]; [4]
  Number of AEs reported: 24
  Subjects reporting AEs: 60.9%
[1]; Treatment C
  Nasal congestion, instances: 4
  Nasal discomfort, instances: 3
  Nausea, instances: 1
[1]; [5]
  Number of AEs reported: 24
  Subjects reporting AEs: 58.3%
[1]; all treatments
  Serious AEs or AEs leading to withdrawal or death: no serious AEs
  Severity of TEAEs: mild
[2]
  Number of TEAEs: 172
  Subjects reporting Grade 1 severity TEAEs: 68.9%
  Subjects reporting Grade 2 severity TEAEs: 23.0%
  Subjects reporting TEAEs: 91.8%
  Subjects reporting headache: 59.0%
  Subjects who discontinued the study drug due to an AE: 6.6%
[3]; 3 mg IN vs 1.0 mg IM, p<0.0001
  Plasma concentrations compared to an intramuscular injection: significantly higher plasma concentrations
[3]; [6]
  AUC0-5 min: 0.588 ng·h/mL
  AUC0-10 min: 2.78 ng·h/mL
  AUC0-15 min: 5.03 ng·h/mL
  AUC0-20 min: 6.79 ng·h/mL
  AUC0-30 min: 9.16 ng·h/mL
  AUC0-[…]: 0.155 ng·h/mL
[3]; [7]
  AUC0-10 min: 0.0815 ng·h/mL
  AUC0-15 min: 0.196 ng·h/mL
  AUC0-30 min: 0.802 ng·h/mL
[3]; [8]
  AUC0-10 min: 0.631 ng·h/mL
  AUC0-15 min: 1.05 ng·h/mL
  AUC0-20 min: 1.33 ng·h/mL
  AUC0-30 min: 1.77 ng·h/mL
  AUC0-[…]: 0.0249 ng·h/mL
[3]; [9]
  AUC0-15 min: 0.0218 ng·h/mL
  AUC0-20 min: 0.0402 ng·h/mL
  AUC0-30 min: 0.0845 ng·h/mL
[3]; [10]
  AUCExtrap: 3.94%
  CL/F: 59.6 L/h
  Kel: 0.0667 h⁻¹
  Tlast: 48.0 h
[3]; [11]
  AUCExtrap: 13.3%
  AUClast: 24.2 ng·h/mL
  CL/F: 91.8 L/h
  Kel: 0.0968 h⁻¹
[3]; [12]
  AUCExtrap: 4.50%
  CL/F: 60.7 L/h
  Kel: 0.0677 h⁻¹
  Tlast: 48.0 h
[3]; [13]
  AUCExtrap: 3.86%
  CL/F: 58.7 L/h
  Kel: 0.0695 h⁻¹
  Tlast: 48.0 h
[3]; [14]
  AUCExtrap: 1.13%
  AUClast: 10.5 ng·h/mL
  CL/F: 40.0 L/h
  Kel: 0.0394 h⁻¹
  Tlast: 48.0 h
[3]; plasma, AUC0-5 min, GeoMean, Treatment B 1.0 mg IM (Ref)
  AUC(0-t): 0.01 ng·h/mL
[3]; plasma, AUC0-5 min, Treatment B: 1.0 mg nalmefene IM (gluteal muscle), plasma, Geo. Mean, n 68
  AUC(0-t): 0.0102 ng·h/mL
[3]; plasma, AUC0-5 min, Treatment B: 1.0 mg nalmefene IM (gluteal muscle), plasma, Mean, n 68
  AUC(0-t): 0.0181 ng·h/mL
[3]; plasma, AUC0-10 min, GeoMean, Treatment B 1.0 mg IM (Ref)
  AUC(0-t): 0.064 ng·h/mL
[3]; plasma, AUC0-10 min, Treatment B: 1.0 mg nalmefene IM (gluteal muscle), plasma, Geo. Mean, n 68
  AUC(0-t): 0.0639 ng·h/mL
[3]; plasma, AUC0-10 min, Treatment B: 1.0 mg nalmefene IM (gluteal muscle), plasma, Mean, n 68
  AUC(0-t): 0.0994 ng·h/mL
[3]; plasma, AUC0-10 min, Treatment B: 1.0 mg nalmefene IM (gluteal muscle), plasma, Median, n 68
  AUC(0-t): 0.0583 ng·h/mL
[3]; plasma, AUC0-15 min, GeoMean, Treatment B 1.0 mg IM (Ref)
  AUC(0-t): 0.142 ng·h/mL
[3]; plasma, AUC0-15 min, Treatment B: 1.0 mg nalmefene IM (gluteal muscle), plasma, Geo. Mean, n 68
  AUC(0-t): 0.142 ng·h/mL
[3]; plasma, AUC0-15 min, Treatment B: 1.0 mg nalmefene IM (gluteal muscle), plasma, Mean, n 68
  AUC(0-t): 0.2 ng·h/mL
[3]; plasma, AUC0-15 min, Treatment B: 1.0 mg nalmefene IM (gluteal muscle), plasma, Median, n 68
  AUC(0-t): 0.143 ng·h/mL
[3]; plasma, AUC0-20 min, GeoMean, Treatment B 1.0 mg IM (Ref)
  AUC(0-t): 0.228 ng·h/mL
[3]; plasma, AUC0-20 min, Treatment B: 1.0 mg nalmefene IM (gluteal muscle), plasma, Geo. Mean, n 68
  AUC(0-t): 0.228 ng·h/mL
[3]; plasma, AUC0-20 min, Treatment B: 1.0 mg nalmefene IM (gluteal muscle), plasma, Mean, n 68
  AUC(0-t): 0.299 ng·h/mL
[3]; plasma, AUC0-20 min, Treatment B: 1.0 mg nalmefene IM (gluteal muscle), plasma, Median, n 68
  AUC(0-t): 0.228 ng·h/mL
[3]; plasma, AUC0-30 min, GeoMean, Treatment B 1.0 mg IM (Ref)
  AUC(0-t): 0.405 ng·h/mL
[3]; plasma, AUC0-30 min, Treatment B: 1.0 mg nalmefene IM (gluteal muscle), plasma, Geo. Mean, n 68
  AUC(0-t): 0.405 ng·h/mL
[3]; plasma, AUC0-30 min, Treatment B: 1.0 mg nalmefene IM (gluteal muscle), plasma, Mean, n 68
  AUC(0-t): 0.491 ng·h/mL
[3]; plasma, AUC0-30 min, Treatment B: 1.0 mg nalmefene IM (gluteal muscle), plasma, Median, n 68
  AUC(0-t): 0.389 ng·h/mL
[3]; plasma, AUCLast, GeoMean, Treatment B 1.0 mg IM (Ref)
  AUC(0-t): 16 ng·h/mL
[3]; plasma, GeoMean, Treatment B 1.0 mg IM (Ref)
  AUC(0-inf): 16.8 ng·h/mL
[3]; plasma, Treatment B: IM 1.0 mg nalmefene hydrochloride, plasma, Geo. Mean, n=68
  AUC(0-inf): 16.8 ng·h/mL
[3]; plasma, Treatment B: IM 1.0 mg nalmefene hydrochloride, plasma, Median, n=68
  AUC(0-inf): 17 ng·h/mL
[3]; plasma, AUClast, Treatment B: IM 1.0 mg nalmefene hydrochloride, plasma, Geo. Mean, n=68
  AUC(0-t): 16 ng·h/mL
